Assay results from patent publication EP1077981B1, “NOVEL CEPHALOSPORIN COMPOUNDS, PROCESSES FOR PREPARATION THEREOF AND ANTIMICROBIAL COMPOSITIONS CONTAINING THE SAME” (LG CHEMICAL LIMITED, priority 1998, dated 1999).
Converted amounts (≈) assume the structure as drawn. Like-named read-outs stand apart in the source and are kept apart here.

Columns and labels:
Assay in all cases: MIC against standard strains (agar dilution)
Format in all cases: cell-based
[1] = system: Escherichia coli 851E; settings: Escherichia coli, 851E, 20 h
Procedure: (§1) Test example 1: Measurement of Minimum Inhibitory Concentration (MIC)
(§2) Specifically, test compounds were diluted by 2-fold dilution method and dispersed in Mueller-Hinton agar medium and then, 2µℓ of test strains were inoculated at a concentration of 10^7 cfu(colony forming unit)/mℓ on the medium and incubated for 20 hours at 37°C.

[2] = system: Staphylococcus aureus 77
Procedure: as §1, §2

[3] = system: Klebsiella aerogenes K1+ 1082E
Procedure: as §1, §2

[4] = system: Serratia marcescens 1826E
Procedure: as §1, §2

[5] = system: Staphylococcus aureus 241
Procedure: as §1, §2

[6] = system: Acinetobacter calcoaceticu 15473
Procedure: as §1, §2

[7] = system: Enterobacter cloacae P99
Procedure: as §1, §2

[8] = system: Escherichia coli TEM3 3455E; settings: TEM33455E, 20 h
Procedure: as §1, §2

[9] = system: Escherichia coli TEM1 1193E; settings: TEM11193E, 20 h
Procedure: as §1, §2

[10] = system: Escherichia coli 10536
Procedure: as §1, §2

[11] = system: Enterobacter cloacae IND+VE 1194E
Procedure: as §1, §2

[12] = system: Staphylococcus epidermidi 887E
Procedure: as §1, §2

[13] = system: Morganella morganii 1375E
Procedure: as §1, §2

[14] = system: Citrobacter freundii 8090
Procedure: as §1, §2

[15] = system: Escherichia coli 3190Y; settings: Escherichia coli, 3190Y, 20 h
Procedure: as §1, §2

[16] = system: Salmonella typhimurium 14028; settings: Salmonella enterica
Procedure: as §1, §2

[17] = system: Moraxella catarrhalis 25240
Procedure: as §1, §2

[18] = system: Citrobacter diversus 2046E; settings: Citrobacter koseri
Procedure: as §1, §2

[19] = system: Staphylococcus aureus 6538p
Procedure: as §1, §2

[20] = system: Proteus vulgaris 6059
Procedure: as §1, §2

[21] = system: Staphylococcus aureus giorgio
Procedure: as §1, §2

[22] = system: Klebsiella aerogenes SHV-1 1976E; settings: Klebsiella aerogenes, 20 h
Procedure: as §1, §2

[23] = system: Enterococcus faecalis 29212
Procedure: as §1, §2

[24] = system: Pseudomonas aeruginosa 6065Y
Procedure: as §1, §2

[25] = system: Pseudomonas aeruginosa 1912E
Procedure: as §1, §2

[26] = system: Moraxella catarrhalis C2431
Procedure: as §1, §2

[27] = system: Klebsiella pneumoniae 2011E
Procedure: as §1, §2

[28] = system: Escherichia coli TEM9 2639E; settings: TEM92639E
Procedure: as §1, §2

[29] = Staphylococcus aureus, 77, 20 h
[30] = Serratia marcescens, 1826E, 20 h
[31] = Staphylococcus aureus, 241, 20 h
[32] = Enterobacter cloacae, P99, 20 h
[33] = Morganella morganii, 1375E, 20 h
[34] = Citrobacter freundii, 8090, 20 h
[35] = Moraxella catarrhalis, 25240, 20 h
[36] = Staphylococcus aureus, 6538P, 20 h
[37] = Enterococcus faecalis, 29212, 20 h
[38] = Pseudomonas aeruginosa, 6065Y, 20 h
[39] = Pseudomonas aeruginosa, 1912E, 20 h
[40] = Moraxella catarrhalis, C2431, 20 h
[41] = Klebsiella pneumoniae, 2011E, 20 h

CCO/N=C(\C(=O)NC1C(=O)N2C(C(=O)O)=C(Sc3cc(N)nc(N)n3)CSC12)c1csc(N)n1 (stereo not drawn) [compound 27, 7-[(Z)-2-(2-amino-thiazol-4-yl)-2-ethoxyiminoacetylamino]-3-(2,6-diamino-pyrimidin-4-ylsulfanyl)-8-oxo-5-thia-1-aza-bi cyclo[4,2,0]oct-2-ene-2-carboxylic acid]
MIC [1]: 0.25 µg/mL (≈ 0.465 µM) | MIC ([2]; Staphylococcus aureus 77, Mueller-Hinton agar, 20 hours at 37°C, read-out: MIC): 4 µg/mL (≈ 7.44 µM) | MIC ([3]; Klebsiella aerogenes K1+ 1082E, Mueller-Hinton agar, 20 hours at 37°C, read-out: MIC): > 64 µg/mL | MIC ([4]; Serratia marcescens 1826E, Mueller-Hinton agar, 20 hours at 37°C, read-out: MIC): 4 µg/mL (≈ 7.44 µM) | MIC ([5]; Staphylococcus aureus 241, Mueller-Hinton agar, 20 hours at 37°C, read-out: MIC): 8 µg/mL (≈ 14.9 µM) | MIC ([6]; Acinetobacter calcoaceticu 15473, Mueller-Hinton agar, 20 hours at 37°C, read-out: MIC): 32 µg/mL (≈ 59.5 µM) | MIC ([7]; Enterobacter cloacae P99, Mueller-Hinton agar, 20 hours at 37°C, read-out: MIC): > 64 µg/mL | MIC [8]: 16 µg/mL (≈ 29.8 µM) | MIC [9]: 0.5 µg/mL (≈ 0.93 µM) | MIC ([10]; Escherichia coli 10536, Mueller-Hinton agar, 20 hours at 37°C, read-out: MIC): 0.25 µg/mL (≈ 0.465 µM) | MIC ([11]; Enterobacter cloacae IND+VE 1194E, Mueller-Hinton agar, 20 hours at 37°C, read-out: MIC): > 64 µg/mL | MIC ([12]; Staphylococcus epidermidi 887E, Mueller-Hinton agar, 20 hours at 37°C, read-out: MIC): 8 µg/mL (≈ 14.9 µM) | MIC ([13]; Morganella morganii 1375E, Mueller-Hinton agar, 20 hours at 37°C, read-out: MIC): 0.25 µg/mL (≈ 0.465 µM) | MIC ([14]; Citrobacter freundii 8090, Mueller-Hinton agar, 20 hours at 37°C, read-out: MIC): 2 µg/mL (≈ 3.72 µM) | MIC [15]: 0.13 µg/mL (≈ 0.242 µM) | MIC ([16]; Salmonella typhimurium 14028, Mueller-Hinton agar, 20 hours at 37°C, read-out: MIC): 1 µg/mL (≈ 1.86 µM) | MIC ([17]; Moraxella catarrhalis 25240, Mueller-Hinton agar, 20 hours at 37°C, read-out: MIC): ≤ 0.008 µg/mL | MIC ([18]; Citrobacter diversus 2046E, Mueller-Hinton agar, 20 hours at 37°C, read-out: MIC): 64 µg/mL (≈ 119 µM) | MIC ([19]; Staphylococcus aureus 6538p, Mueller-Hinton agar, 20 hours at 37°C, read-out: MIC): 2 µg/mL (≈ 3.72 µM) | MIC ([20]; Proteus vulgaris 6059, Mueller-Hinton agar, 20 hours at 37°C, read-out: MIC): 0.063 µg/mL (≈ 0.117 µM) | MIC ([21]; Staphylococcus aureus giorgio, Mueller-Hinton agar, 20 hours at 37°C, read-out: MIC): 0.5 µg/mL (≈ 0.93 µM) | MIC [22]: 0.5 µg/mL (≈ 0.93 µM) | MIC ([23]; Enterococcus faecalis 29212, Mueller-Hinton agar, 20 hours at 37°C, read-out: MIC): 64 µg/mL (≈ 119 µM) | MIC ([24]; Pseudomonas aeruginosa 6065Y, Mueller-Hinton agar, 20 hours at 37°C, read-out: MIC): 64 µg/mL (≈ 119 µM) | MIC ([25]; Pseudomonas aeruginosa 1912E, Mueller-Hinton agar, 20 hours at 37°C, read-out: MIC): 8 µg/mL (≈ 14.9 µM) | MIC ([26]; Moraxella catarrhalis C2431, Mueller-Hinton agar, 20 hours at 37°C, read-out: MIC): ≤ 0.008 µg/mL | MIC ([27]; Klebsiella pneumoniae 2011E, Mueller-Hinton agar, 20 hours at 37°C, read-out: MIC): 2 µg/mL (≈ 3.72 µM) | MIC ([28]; Escherichia coli TEM9 2639E, Mueller-Hinton agar, 20 hours at 37°C, read-out: MIC): 64 µg/mL (≈ 119 µM)

C#CCO/N=C(\C(=O)NC1C(=O)N2C(C(=O)O)=C(Sc3cc(N)nc(N)n3)CSC12)c1csc(N)n1 (stereo not drawn) [compound 28, 7-[(Z)-2-(2-amino-thiazol-4-yl)-2-propyn-2-yioxyimino-acetylamino]-3-(2,6-diamino-pyrimidin-4-ylsulfanyl)-8-oxo-5-thia1-aza-bicyclo[4,2,0]oct-2-ene-2-carboxylic acid]
MIC [1]: 0.25 µg/mL (≈ 0.457 µM) | MIC [2, 29]: 4 µg/mL (≈ 7.3 µM) | MIC ([3]; Klebsiella aerogenes, 20 h): > 64 µg/mL | MIC [4, 30]: 8 µg/mL (≈ 14.6 µM) | MIC [5, 31]: 8 µg/mL (≈ 14.6 µM) | MIC ([6]; Acinetobacter, 15473, 20 h): 32 µg/mL (≈ 58.4 µM) | MIC [7, 32]: > 64 µg/mL | MIC [8]: 16 µg/mL (≈ 29.2 µM) | MIC [9]: 0.5 µg/mL (≈ 0.913 µM) | MIC ([10]; Escherichia coli, 10536, 20 h): 0.25 µg/mL (≈ 0.457 µM) | MIC ([11]; Enterobacter cloacae, 20 h): > 64 µg/mL | MIC ([12]; Staphylococcus, 887E, 20 h): 8 µg/mL (≈ 14.6 µM) | MIC [13, 33]: 0.25 µg/mL (≈ 0.457 µM) | MIC [14, 34]: 2 µg/mL (≈ 3.65 µM) | MIC [15]: 0.13 µg/mL (≈ 0.237 µM) | MIC ([16]; TYPHIMURIUM, 20 h): 1 µg/mL (≈ 1.83 µM) | MIC [17, 35]: 0.016 µg/mL (≈ 0.0292 µM) | MIC ([18]; 2046E, 20 h): > 64 µg/mL | MIC [19, 36]: 1 µg/mL (≈ 1.83 µM) | MIC ([20]; Proteus vulgaris, 6059, 20 h): 0.031 µg/mL (≈ 0.0566 µM) | MIC ([21]; Staphylococcus aureus, 20 h): 0.5 µg/mL (≈ 0.913 µM) | MIC [22]: 0.5 µg/mL (≈ 0.913 µM) | MIC [23, 37]: 32 µg/mL (≈ 58.4 µM) | MIC [24, 38]: 64 µg/mL (≈ 117 µM) | MIC [25, 39]: 32 µg/mL (≈ 58.4 µM) | MIC [26, 40]: 0.016 µg/mL (≈ 0.0292 µM) | MIC [27, 41]: 2 µg/mL (≈ 3.65 µM) | MIC ([28]; Escherichia coli, 20 h): 64 µg/mL (≈ 117 µM)

CCO/N=C(\C(=O)NC1C(=O)N2C(C(=O)O)=C(Sc3cc(N)nc(N)n3)CSC12)c1nsc(N)n1 (stereo not drawn) [compound 29]
MIC [1]: 0.25 µg/mL (≈ 0.464 µM) | MIC [2, 29]: 4 µg/mL (≈ 7.43 µM) | MIC ([3]; Klebsiella aerogenes, 20 h): > 64 µg/mL | MIC [4, 30]: 4 µg/mL (≈ 7.43 µM) | MIC [5, 31]: 8 µg/mL (≈ 14.9 µM) | MIC ([6]; Acinetobacter, 15473, 20 h): 32 µg/mL (≈ 59.4 µM) | MIC [7, 32]: > 64 µg/mL | MIC [8]: 32 µg/mL (≈ 59.4 µM) | MIC [9]: 1 µg/mL (≈ 1.86 µM) | MIC ([10]; Escherichia coli, 10536, 20 h): 0.13 µg/mL (≈ 0.241 µM) | MIC ([11]; Enterobacter cloacae, 20 h): > 64 µg/mL | MIC ([12]; Staphylococcus, 887E, 20 h): 8 µg/mL (≈ 14.9 µM) | MIC [13, 33]: 0.25 µg/mL (≈ 0.464 µM) | MIC [14, 34]: 2 µg/mL (≈ 3.71 µM) | MIC [15]: 0.063 µg/mL (≈ 0.117 µM) | MIC ([16]; TYPHIMURIUM, 20 h): 1 µg/mL (≈ 1.86 µM) | MIC [17, 35]: ≤ 0.008 µg/mL | MIC ([18]; 2046E, 20 h): > 64 µg/mL | MIC [19, 36]: 2 µg/mL (≈ 3.71 µM) | MIC ([20]; Proteus vulgaris, 6059, 20 h): 0.063 µg/mL (≈ 0.117 µM) | MIC ([21]; Staphylococcus aureus, 20 h): 1 µg/mL (≈ 1.86 µM) | MIC [22]: 1 µg/mL (≈ 1.86 µM) | MIC [23, 37]: 64 µg/mL (≈ 119 µM) | MIC [24, 38]: > 64 µg/mL | MIC [25, 39]: 8 µg/mL (≈ 14.9 µM) | MIC [26, 40]: ≤ 0.008 µg/mL | MIC [27, 41]: 2 µg/mL (≈ 3.71 µM) | MIC ([28]; Escherichia coli, 20 h): 64 µg/mL (≈ 119 µM)
